The experiment has as its target T1, human 5-HT6 receptor (Homo sapiens, UniProt P50406).
T1 construct: host or cells: CHO-K1 cells, stably transfected; membranes prepared in house
Description: Human 5-HT6 Receptor Binding Assay ([3H]LSD displacement, scintillation beads). The note with it: membranes of CHO-K1 cells with recombinant human 5-HT6, 4 nM [3H]LSD; Table 1, class symbols; read-out: h5-HT6 (Ki). As to the method:
Human 5-HT6 Receptor Binding Assay
Membranes were prepared from CHO—K1 cells stably transfected with the human 5-HT6 receptor (Euroscreen; ES-316-C). The cells were grown in Gibco Advanced DMEM-F12 (Cat#12634010) containing 2% dialyzed FBS (Hyclone Cat#SH30079.03). The cells were harvested in phosphate buffered saline (PBS) containing 0.1 mM EDTA and pelleted by centrifugation (1000×g), the supernatant was discarded and the pellets were stored at −80° C. prior to membrane preparation. Membranes were prepared as previously described (J Bio Chem. 1992, 267 (14) 9844-51). Briefly, frozen cell pellet was resuspended in a lysis buffer containing 5 mM Tris-HCl (pH 7.5), 5 mM EDTA and 1 complete EDTA-free protease inhibitor tablet (Roche Applied Science, Indianapolis, Ind.) per 50 mL buffer, and homogenized with a tissue homogenizer. The cell lysate was then centrifuged at 40,000×g for 30 min at 4° C. to collect the membranes. The membrane pellets were washed in membrane buffer (50 mM Tris-HCl (pH 7.5), 0.6 mM EDTA, 5 mM MgCl2, 1 complete EDTA-free protease inhibitor tablet per 50 mL buffer) using a tissue homogenizer. The membranes were centrifuged at 40,000×g for 30 min at 4° C. and the pellets were resuspended in membrane buffer containing 250 mM sucrose, and protein concentration was determined using the Coomassie Plus kit (Pierce Biotechnology, Rockford, Ill.).
Membranes prepared from cells expressing recombinant human 5-HT6 receptor (h5-HT6) were resuspended in assay buffer containing 50 mM Tris HCl, (pH7.4), 4 mM CaCl2, 10 μg/mL saponin, and 0.1% (w/v) ascorbic acid. Membranes were preincubated using 1.75 μg membrane protein and 0.25 mg FlashBlue scintillation beads (PerkinElmer catalogue #FB001) per well at 4° for 30 min. […] Test compounds or assay controls for total and non-specific binding were diluted in DMSO as 100× solutions and serially diluted by half log concentrations on a Perkin Elmer JANUS Automated Workstation. Serotonin (10 μM final concentration) was used to determine non-specific binding in the assay. Plates were read using the Microbeta Trilux 1450 LSC and luminescence counter. Data were analyzed by nonlinear […] using the dose-response equation (variable slope) to calculate IC50 in XLfit4 (ID Business Solutions Inc.): y=(Bottom+((Top−Bottom)/(1+((IC50/x)^Hill slope))))
Ki value was then calculated according to the Cheng-Prusoff method using the equation below (Cheng and Prusoff, 1973): Ki,app=IC50/(1+[radioligand]/Kd))

Where a name gives a salt, the structure may show the parent alone. Where only a bound is given, the exact number is not on record here.

Experimental findings from US8765779B2, “Tricyclic derivatives and their pharmaceutical use and compositions” (Cephalon, Inc., priority 2009, dated 2014) are described below.

T1 sequence (P50406 whole entry): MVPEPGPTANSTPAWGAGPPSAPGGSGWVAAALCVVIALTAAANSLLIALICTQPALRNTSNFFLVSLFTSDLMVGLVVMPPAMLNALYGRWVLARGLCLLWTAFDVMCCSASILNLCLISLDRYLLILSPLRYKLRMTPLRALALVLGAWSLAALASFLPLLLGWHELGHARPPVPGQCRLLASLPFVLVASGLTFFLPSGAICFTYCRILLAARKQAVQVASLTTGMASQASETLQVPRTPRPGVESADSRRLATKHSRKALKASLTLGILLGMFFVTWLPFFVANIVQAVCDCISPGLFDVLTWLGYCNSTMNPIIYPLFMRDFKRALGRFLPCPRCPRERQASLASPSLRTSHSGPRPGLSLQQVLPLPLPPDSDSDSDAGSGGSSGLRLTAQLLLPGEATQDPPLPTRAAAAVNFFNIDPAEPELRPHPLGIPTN

For the molecule `COc1cccc(S(=O)(=O)c2ccc3c4c(oc3c2)C(C)(C)NCC4)c1` [Example 16, 7-[(3-methoxyphenyl)sulfonyl]-1,1-dimethyl-1,2,3,4-tetrahydro[1]benzofuro[2,3-c]pyridine], the inhibition constant Ki was less than 500 nM.
Next, `CC(C)Oc1cc(F)cc(S(=O)(=O)c2ccc3c(c2)OC2CNCCC32)c1` (single isomer, unassigned) [Example 364, 7-(3-Fluoro-5-isopropoxy-benzenesulfonyl)-1,2,3,4,4a,9a-hexahydro-benzo[4,5]furo[2,3-c]pyridine hydrochloride]: less than 500 nM.
Next, `COC(=O)c1cccc(S(=O)(=O)c2ccc3oc4c(c3c2)CCNC4)c1` [Example 269]: 500 to 1000 nM; `O=S(=O)(c1cc(Cl)cc(Cl)c1)c1ccc2c(c1)OC1CNCCC21` (centres unmarked) [Example 155]: less than 500 nM.
Next, `CC12CCNCC1Oc1cc(S(=O)(=O)c3cccc(F)c3F)ccc12` (centres unmarked) [Example 488]: less than 500 nM; `COc1ccc(S(=O)(=O)c2ccc3c(c2)C2CCNCC2O3)cc1OC` (centres unmarked) [Example 171]: greater than 1000 nM.
Consider `O=S(=O)(c1cccc(Cl)c1Cl)c1cccc2c1OC1CNCCC21` (centres unmarked) [Example 338], for which the Ki is less than 500 nM.
Next, `O=S(=O)(c1ccc2c(c1)OC1CNCCC21)c1cccc2c1OC(F)(F)O2` (centres unmarked) [Example 461]: less than 500 nM; `CC1(C)NCCc2c1oc1cc(S(=O)(=O)c3cncc(F)c3)ccc21` [Example 381]: less than 500 nM.
Next, `[O-][S+](c1ccc2c3c(oc2c1)CNCC3)c1cccnc1Cl` (centres unmarked) [Example 435]: greater than 1000 nM.
Next, `O=S(=O)(c1cccc(OCCCO)c1)c1ccc2c(c1)OC1CNCCC21` (centres unmarked) [Example 568]: less than 500 nM.
Consider `O=S(=O)(Oc1ccc2c(c1)OC1CNCCC21)c1ccc(Cl)cc1` (centres unmarked) [Example 635, 1,2,3,4,4a,9a-Hexahydro[1]benzofuro[2,3-c]pyridin-7-yl 4-chlorobenzenesulfonate], for which the inhibition constant (Ki) is less than 500 nM.
Take `O=S(=O)(c1ccncc1)c1ccc2oc3c(c2c1)CCNC3` [Example 352]: the Ki was greater than 1000 nM.
Next, `COc1c(F)cc(F)cc1S(=O)(=O)c1ccc2c(c1)OC1CNCCC21` (centres unmarked) [Example 458]: greater than 1000 nM.
Next, `O=S(=O)(c1cccc(Cl)c1)c1ccc2c3c(oc2c1)C1(CCOC1)NCC3` (centres unmarked) [Example 303]: less than 500 nM; `O=S(=O)(c1ccc2oc3c(c2c1)CCNC3)c1ccccc1Cl` [Example 276]: less than 500 nM.
On to `CC(=O)N(C)CC1NCCc2c1oc1cc(S(=O)(=O)c3cccc(F)c3)ccc21` (racemic) [Example 537, N-({7-[(3-fluorophenyl)sulfonyl]-1,2,3,4-tetrahydro[1]benzofuro[2,3-c]pyridin-1-yl}methyl)-N-methylacetamide], for which the Ki is less than 500 nM.
Next, `N#Cc1ccccc1COc1cccc(S(=O)(=O)c2ccc3c(c2)OC2CNCCC32)c1` (centres unmarked) [Example 550]: 500 to 1000 nM; `CC(=O)Nc1ccc(S(=O)(=O)c2ccc3c(c2)OC2CNCCC32)cc1` (centres unmarked) [Example 140]: less than 500 nM; `O=S(=O)(c1cccc(OCC2CC2)c1)c1ccc2c(c1)OC1CNCCC21` (centres unmarked) [Example 555]: less than 500 nM.
Next, `CC1(C)NCCc2c1oc1cc(S(=O)(=O)c3ccccc3)ccc21` [Example 292]: less than 500 nM; `CCCOc1cccc(S(=O)(=O)c2ccc3c(c2)OC2CNCCC32)c1` (centres unmarked) [Example 572]: less than 500 nM; `Cc1cc(C)cc(S(=O)(=O)Oc2ccc3c(c2)C2CCNCC2O3)c1` (centres unmarked) [Example 705]: less than 500 nM.
Next, `O=S(=O)(c1cccc(Cl)c1)c1ccc2oc3c(c2c1)CCNC3` [Example 243]: less than 500 nM; `O=S(=O)(c1cccc(OCc2cnccn2)c1)c1ccc2c(c1)OC1CNCCC21` (centres unmarked) [Example 567]: less than 500 nM; `Cc1ccc(S(=O)(=O)c2ccc3oc4c(c3c2)CCNC4)cc1` [Example 252]: less than 500 nM.
In the case of `COc1cccc(S(=O)(=O)Nc2ccc3c(c2)C2CCNCC2O3)c1` (centres unmarked) [Example 822], the inhibition constant Ki was greater than 1000 nM.
Consider `O=S(=O)(c1ccc(F)c(F)c1)c1ccc2c(c1)OC1CNCCC21` (centres unmarked) [Example 128], for which the inhibition constant (Ki) was less than 500 nM.
Next, `CC12CCNCC1Oc1cc(S(=O)(=O)c3cccc(OC(F)(F)F)c3)ccc12` (centres unmarked) [Example 358, 4a-methyl-7-{[3-(trifluoromethoxy)phenyl]sulfo-nyl}-1,2,3,4,4a,9a-hexahydro[1]benzofuro[2,3-c]pyridine]: less than 500 nM; `Cc1c(Cl)cccc1S(=O)(=O)Oc1ccc2c(c1)C1(C)CCNCC1O2` (centres unmarked) [Example 767]: greater than 1000 nM; `O=S(=O)(c1ccc2c(c1)C1CCNCC1O2)N1CCC(c2ccccc2)CC1` (centres unmarked) [Example 861]: 500 to 1000 nM.
Next, `CC12CCNCC1Oc1ccc(OS(=O)(=O)c3ccc4c(c3)OCCO4)cc12` (centres unmarked) [Example 775]: less than 500 nM; `CC1(C)NCCC2c3ccc(S(=O)(=O)c4cccc(F)c4)cc3OC21` (centres unmarked) [Example 624, 7-[(3-Fluorophenyl)sulfonyl]-1,1-dimethyl-1,2,3,4,4a,9a-hexahydro[1]benzofuro[2,3-c]pyridine]: less than 500 nM.
In the case of `O=S(=O)(c1cc(F)cc(OCC(F)(F)F)c1)c1ccc2c(c1)OC1CNCCC21` (centres unmarked) [Example 403], the Ki was less than 500 nM.
Next, `O=S(=O)(c1ccc(F)cc1)c1ccc2c(c1)OC1CNCCC21` (centres unmarked) [Example 134]: less than 500 nM; `O=S(=O)(c1cccc(F)c1)c1ccc2c3c(oc2c1)C1(CCOC1)NCC3` (racemic) [Example 30, 7-[(3-fluorophenyl)sulfonyl]-3,4,4′,5′-tetrahydro-2H-spiro[1-benzofuro[2,3-c]pyridine-1,3′-furan]]: less than 500 nM.
For the molecule `CC(C)c1ccc(S(=O)(=O)Oc2ccc3c(c2)OC2CNCCC32)cc1` (centres unmarked) [Example 657], the inhibitory constant (Ki) was less than 500 nM.
Next, `CC(C)(C)c1ccc(S(=O)(=O)Oc2ccc3c(c2)OC2CNCCC32)cc1` (centres unmarked) [Example 666]: less than 500 nM.
Next, `O=S(=O)(c1ccc2c(c1)OC1CNCCC21)c1cccc2ccccc12` (centres unmarked) [Example 114]: less than 500 nM.
Next, `O=S(=O)(c1ccccc1)c1ccc2c(c1)OC1CNCCC21` (centres unmarked) [Example 321, 7-(phenylsulfonyl)-1,2,3,4,4a,9a-hexahydro[1]benzofuro[2,3-c]pyridine]: less than 500 nM; `COc1cncc(S(=O)(=O)c2ccc3c4c(oc3c2)C(C)(C)NCC4)c1` [Example 370]: less than 500 nM.
In the case of `O=S(=O)(Oc1ccc2c(c1)OC1CNCCC21)c1ccc(-n2cccn2)cc1` (centres unmarked) [Example 671], the inhibition constant Ki was less than 500 nM.
Next, `[O-][S+](c1ccc2c(c1)OC1CNCCC21)c1cccnc1F` (centres unmarked) [Example 383]: greater than 1000 nM.
Next, `CC12CCNCC1Oc1ccc(OS(=O)(=O)c3csc4ccccc34)cc12` (centres unmarked) [Example 771]: less than 500 nM; `Cc1noc(C)c1S(=O)(=O)Oc1ccc2c(c1)OC1CNCCC21` (centres unmarked) [Example 646]: 500 to 1000 nM; `COc1cc(S(=O)(=O)c2ccc3c4c(oc3c2)CNCC4(C)C)c[n+]([O-])c1` [Example 450]: greater than 1000 nM.
In the case of `CC12CCNCC1Oc1ccc(S(=O)(=O)c3ccccc3)cc12` (centres unmarked) [Example 62, 4a-Methyl-6-(phenylsulfonyl)-1,2,3,4,4a,9a-hexahydro[1]benzofuro[2,3-c]pyridine hydrochloride], the Ki was greater than 1000 nM.

In general, Ki refers to the dissociation constant of the complex between target and ligand, obtained from inhibition or displacement.
